# Results as given in paper PMC6482291, “Anticonvulsant Activity of Pterostilbene in Zebrafish and Mouse Acute Seizure Tests” (Neurochemical Research, 2019).
# Assays:
# MES seizures in mice = system: MES seizures in mice; set-up: method as in PMID 27600732; conditions: cited from earlier work
# [1] = system: 6 Hz psychomotor seizures in mice; set-up: method as in PMID 27600732; conditions: cited from earlier work
# [2] = system: PTZ-induced seizures in rats; conditions: PTZ test in rats; cited from earlier work
# rats = system: rats; set-up: method as in PMID 24717328; conditions: acute and chronic administration; cited from earlier work
# mice [3] = assay: Forced swim test; assay type: in vivo; conditions: IMI 20 mg/kg ip; p < 0.05
# Protocol: The forced swim test was carried out according to the method described by Porsolt et al. to assess antidepressant properties of PTE. Mice were placed individually in a glass cylinder (25 cm high; 10 cm diameter) containing tap water to a depth of 11 cm. Water was maintained at temperature of 23–25 °C. Mice were permitted to swim for 6 min and duration of their immobility was recorded during the last 4 min of the test by a trained experimenter who was blinded to the treatment. Immobility time was recorded using cumulative stopwatches. Mouse was considered to be immobile when it was floating in the water without struggling and making no attempts to escape, it was making only these movements necessary to keep its head above the water. After each trial, the water in the cylinder was replaced with fresh water. Experimental groups consisted of 10 animals.
# Data obtained in the forced swim test were expressed as the mean (in s) + SEM immobility time in each experimental group. Results were analyzed by one-way ANOVA.
# mice [4] = assay: Grip-strength test; assay type: in vivo; conditions: 15 min before test
# Protocol: The acute effect of PTE on the skeletal muscles strength in mice was determined in the grip strength test. The apparatus for this test (BioSeb, Chaville, France) consisted of a steel wire grid (8 × 8 cm) connected to an isometric force transducer. Each mouse was lifted by tail and allowed to grasp the grid with its forepaws and then it was gently pulled backward until its released the grid. The maximal force in newtons (N) exerted by mouse before leaving the grid was recorded. The mean of three consecutive measurements for each animal was calculated and normalized to body weight (mN/g).
# Experimental groups consisted of 12 animals. Results obtained in the grip-strength test were compared using one-way ANOVA followed by the Tukey’s post-hoc multiple comparison test.
# [5] = system: 6 Hz-induced psychomotor seizures in mice; assay: 6 Hz psychomotor seizure threshold test; assay type: in vivo; conditions: VPA 50 mg/kg ip, 15 min before test; 95% confidence limits in brackets
# From the text: Psychomotor (limbic) seizures were induced by transcorneal stimulation (6 Hz, 0.2 ms rectangular pulse, 3 s duration) generated by a Grass S48 stimulator coupled with a constant current unit CCU1 (both from Grass Technologies, West Warwick, RI, USA). Before stimulation a drop of ocular anesthetic, 1% tetracaine hydrochloride solution, was applied into the animals’ corneas. The electrodes were soaked in saline to ensure the good electrical contact. During the stimulation animals were restrained manually and immediately after the stimulation were placed in a Plexiglas box for observation of presence or absence of the psychomotor seizures. These seizures were characterized by immobilization or stun, often associated with rearing, forelimb clonus, twitching of vibrissae and elevated tail (Straub-tail), lasting at least 10 s from the stimulation. Lack of the above symptoms or their cessation within 10 s from the stimulation was considered as absence of seizure activity.
# In the present study two 6 Hz-induced psychomotor seizure tests were performed: (1) the 6 Hz psychomotor seizure threshold test which employed stimulation at varied current intensities, and (2) the 6 Hz psychomotor seizure test with supramaximal stimulation at 32 mA and 44 mA.
# In the 6 Hz psychomotor seizures threshold test, threshold current intensity (CS50 in mA) was estimated in groups of 20 animals according to the above mentioned up-and-down method.
# [6] = system: maximal electroshock seizures in mice; assay: Maximal electroshock seizure threshold (MEST) test; assay type: in vivo; conditions: VPA 150 mg/kg ip
# From the text: Seizures in the MEST test were evoked by applying a sine-wave alternating current (maximal output voltage 500 V, 50 Hz for 0.2 s) generated by constant current stimulator (Rodent Shocker, Type 221, Hugo Sachs Elektronik, Freiburg, Germany). The stimulation was delivered by saline-socked transcorneal electrodes. Before the stimulation 1% solution of tetracaine hydrochloride was applied into animals’ eyes for local anesthesia. During the stimulation animals were restrained manually and immediately after the stimulation they were placed in the Plexiglas box for observation. The endpoint evaluated in the test was the maximal electroconvulsion which was defined as extension of the hindlimbs above a 90° angle to the torso of animal.
# The threshold for maximal electroshock was determined according to the up-and-down method described by Kimball et al.. The mice in the experimental group were subjected to the stimuli with different current intensities (range of 8–30 mA) which changes in 0.06-log steps. If stimulated mouse respond with seizures, the next mouse in the group was stimulated with current of intensity 0.06-log step lower than the previous one. […] Groups of 20 stimulated animals were used to calculate the threshold current strength (CS50 in mA; the current strength which induces tonic hindlimb extension in 50% of the tested animals) with SEM.
# CS50 values were compared with one-way ANOVA followed by the Tukey’s multiple comparison test.
# [7] = system: PTZ-induced seizures in mice; assay: Timed iv PTZ seizure threshold test in mice; assay type: in vivo; conditions: VPA 150 mg/kg ip, 15 min before test
# Protocol: Each mice was placed in the cylindrical restrainer and the needle (27G, 3/4 in., Sterican®, B. Braun Melsungen AG, Melsungen, Germany) was injected into the lateral tail vein. The needle was attached by the polyethylene drain (PE20RW, Plastic One Inc. Roanoke, VA, USA) with the syringe containing 1% solution of PTZ (Sigma–Aldrich, St. Louis, MO, USA) in water and the syringe was located in the infuse pomp (model Physio 22, Hugo Sachs Elektronik–Harvard Apparatus GmbH, March-Hugstetten, Germany). The correct placement of the needle in the vein was confirmed based on the presence of the blood in the drain and the needle was protected against displacement by a peace of adhesive tape. Following injection, mice were took out from the restrainer and placed in the Plexiglas box for observation. The PTZ solution was infused into the vein at a constant rate of 0.2 ml/min. The time intervals from the start of infusion of PTZ solution to the beginning of three kinds of seizures, i.e., the first myoclonic twitch, generalized clonus with loss of the righting reflex and forelimb tonic extension, were noted. Infusion of PTZ solution was stopped immediately after onset of the tonic seizures, which usually were lethal. If animal survived the test, it was euthanized immediately. The threshold dose of PTZ (in mg/kg body weight) for each kind of seizures was calculated according to the following formula: PTZmg/kg=infusion durations×infusion rateml/s×PTZ concentrationmg/ml/weightkg
# Experimental groups consisted of 9–13 animals. The data obtained in the iv PTZ test are presented as the threshold dose of PTZ (in mg/kg) + standard error of the mean (SEM) needed to elicit the respective kind of seizures. The data were analyzed by one-way ANOVA followed by the Tukey’s multiple comparison test. Statistical significance was noted when p values were equal or lower than 0.05.
# mice [8] = assay: Chimney test; assay type: in vivo; conditions: 15 min before test
# Protocol: The chimney test was performed to evaluate influence of PTE on motor coordination in mice. During the test mice had to climb backwards up the plastic transparent cylinder (inner diameter 3 cm and length 30 cm) with gravelly inside. The inability of mice to escape from the cylinder within 60 s was considered as an motor impairment. Results obtained in the test were presented as percent of impaired mice in groups of 10–12 animals and were compared with the Fisher’s exact probability test.
smiles,measurement,setting,value
"Oc1ccc(/C=C/c2cc(O)cc(O)c2)cc1 [RES, resveratrol]",anticonvulsant activity in the MES test,MES seizures in mice,showed significant anticonvulsant activity neither in the MES nor 6 Hz psychomotor seizure tests
same,anticonvulsant activity in the 6 Hz psychomotor seizure test,[1],showed significant anticonvulsant activity neither in the MES nor 6 Hz psychomotor seizure tests
same,duration of clonic seizures,[2],reduced the duration
same,incidence of the generalized tonic-clonic seizures,[2],decreased incidence
same,immobility time in the forced swim test,rats,decreased immobility time
"CN(C)CCCN1c2ccccc2CCc2ccccc21 [IMI, imipramine, reference compound]",immobility time vs control,mice [3],Statistically significant difference
"CCCC(CCC)C(=O)O [VPA, valproic acid, reference compound]",Neuromuscular strength,mice [4]; VPA 50 mg/kg ip,31.12 ± 1.20 mN/g
same,Neuromuscular strength,mice [4]; VPA 150 mg/kg ip,25.36 ± 0.92 mN/g
same,CS50 (psychomotor seizure threshold),[5],15.97 (15.13–16.85) mA
same,CS50 (seizure threshold),"[6]; 15 min before test, 95% confidence limits in brackets",14.13 (13.27–15.04) mA
same,increase of seizure threshold vs negative control,[6]; p < 0.001,~ 49%
same,threshold for the first myoclonic twitch vs negative control,[7]; p < 0.001,Statistically significant increases
same,increase of threshold for generalized clonic seizures vs negative control,[7]; p < 0.01,over 45%
same,threshold for tonic forelimb extension vs negative control,[7]; p < 0.01,Statistically significant increase
same,Impairment of motor coordination (percentage of animals),mice [8]; VPA 50 mg/kg ip,0%
same,Impairment of motor coordination (percentage of animals),mice [8]; VPA 150 mg/kg ip,0%
